Columns and labels:
[1] = target: C-C chemokine receptor type 5 (Homo sapiens, UniProt P51681); assay type: cell membranes, Membrane; settings: hek293; note: in other assays of this panel Not Active means under 50% inhibition at 10 µM
D(4) dopamine receptor = target: T1, D(4) dopamine receptor (Homo sapiens, UniProt P21917); experiment: DRUGMATRIX: Dopamine D4.2 radioligand binding (ligand: [3H] Spiperone); assay type: cell membranes, CHO-K1, Membrane; settings: cho-k1; Not Active = under 50% inhibition at 10 µM
T1 sequence (P21917 whole entry): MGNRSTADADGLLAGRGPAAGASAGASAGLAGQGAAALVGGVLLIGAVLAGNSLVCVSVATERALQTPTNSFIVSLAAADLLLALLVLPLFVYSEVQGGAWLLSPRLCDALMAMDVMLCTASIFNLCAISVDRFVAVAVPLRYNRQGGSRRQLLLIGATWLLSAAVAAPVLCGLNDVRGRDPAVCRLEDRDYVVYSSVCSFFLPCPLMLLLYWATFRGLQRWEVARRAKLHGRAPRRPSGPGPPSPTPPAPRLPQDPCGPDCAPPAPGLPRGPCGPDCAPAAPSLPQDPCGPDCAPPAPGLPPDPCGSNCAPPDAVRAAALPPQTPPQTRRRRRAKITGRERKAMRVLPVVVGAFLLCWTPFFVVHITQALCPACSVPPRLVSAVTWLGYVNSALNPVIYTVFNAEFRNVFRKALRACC

[2] = DRUGMATRIX: Calcium Channel Type L, Phenylalkylamine radioligand binding (ligand: [3H] (-)-Desmethoxyverapamil (D-888)); assay type: cell membranes, Rattus norvegicus, Wistar, Brain, Membrane; settings: Not Active = under 50% inhibition at 10 µM
[3] = target: 5-hydroxytryptamine receptor 2B (Homo sapiens, UniProt P41595); assay type: cell membranes, CHO-K1, Membrane; settings: cho-k1; note: in other assays of this panel Not Active means under 50% inhibition at 10 µM
Cytochrome P450 2A6 = target: T2, Cytochrome P450 2A6 (Homo sapiens, UniProt P11509); settings: bti-tn-5b1-4; note: in other assays of this panel Not Active means under 50% inhibition at 10 µM
T2 sequence (P11509 whole entry): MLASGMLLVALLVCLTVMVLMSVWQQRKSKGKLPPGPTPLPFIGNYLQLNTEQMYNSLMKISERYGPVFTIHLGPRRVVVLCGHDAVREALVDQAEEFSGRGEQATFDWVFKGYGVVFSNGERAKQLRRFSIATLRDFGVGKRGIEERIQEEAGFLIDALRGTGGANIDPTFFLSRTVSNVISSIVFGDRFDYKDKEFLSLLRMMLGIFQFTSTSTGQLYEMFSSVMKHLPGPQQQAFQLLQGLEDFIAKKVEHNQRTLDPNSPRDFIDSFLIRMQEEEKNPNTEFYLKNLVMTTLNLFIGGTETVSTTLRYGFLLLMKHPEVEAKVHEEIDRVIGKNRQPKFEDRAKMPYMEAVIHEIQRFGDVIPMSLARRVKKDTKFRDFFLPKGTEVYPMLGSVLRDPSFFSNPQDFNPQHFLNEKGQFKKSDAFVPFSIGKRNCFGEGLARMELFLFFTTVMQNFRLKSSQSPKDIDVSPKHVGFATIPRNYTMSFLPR

[4] = DRUGMATRIX: Calcium Channel Type L, Dihydropyridine radioligand binding (ligand: [3H] Nitrendipine); assay type: cell membranes, Rattus norvegicus, Wistar, Cerebral cortex, Membrane; settings: Not Active = under 50% inhibition at 10 µM
[5] = target: T3, Type-2 angiotensin II receptor (Homo sapiens, UniProt P50052); assay type: cell-based; settings: cho-k1; note: in other assays of this panel Not Active means under 50% inhibition at 10 µM
T3 sequence (P50052 whole entry): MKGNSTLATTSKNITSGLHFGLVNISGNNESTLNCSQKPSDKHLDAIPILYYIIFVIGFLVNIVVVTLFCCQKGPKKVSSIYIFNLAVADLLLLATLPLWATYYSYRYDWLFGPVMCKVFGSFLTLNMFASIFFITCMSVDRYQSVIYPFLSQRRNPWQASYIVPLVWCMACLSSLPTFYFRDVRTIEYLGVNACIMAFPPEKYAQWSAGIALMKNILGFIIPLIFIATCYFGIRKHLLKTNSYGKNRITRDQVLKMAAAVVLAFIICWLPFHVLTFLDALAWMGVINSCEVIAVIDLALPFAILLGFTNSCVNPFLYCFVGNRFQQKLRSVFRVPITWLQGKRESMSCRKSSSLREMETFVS

Chain of C-C chemokine receptor type 5 (P51681 whole entry): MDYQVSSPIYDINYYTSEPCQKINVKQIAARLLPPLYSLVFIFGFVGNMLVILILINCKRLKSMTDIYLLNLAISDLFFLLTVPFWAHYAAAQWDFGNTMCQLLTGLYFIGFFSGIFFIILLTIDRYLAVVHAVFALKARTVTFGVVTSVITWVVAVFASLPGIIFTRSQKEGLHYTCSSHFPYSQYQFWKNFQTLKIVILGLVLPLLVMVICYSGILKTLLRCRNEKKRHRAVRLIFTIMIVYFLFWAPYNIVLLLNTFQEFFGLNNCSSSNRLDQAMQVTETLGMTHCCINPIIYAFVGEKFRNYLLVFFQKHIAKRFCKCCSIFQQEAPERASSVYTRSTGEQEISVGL
Chain of 5-hydroxytryptamine receptor 2B (P41595 whole entry): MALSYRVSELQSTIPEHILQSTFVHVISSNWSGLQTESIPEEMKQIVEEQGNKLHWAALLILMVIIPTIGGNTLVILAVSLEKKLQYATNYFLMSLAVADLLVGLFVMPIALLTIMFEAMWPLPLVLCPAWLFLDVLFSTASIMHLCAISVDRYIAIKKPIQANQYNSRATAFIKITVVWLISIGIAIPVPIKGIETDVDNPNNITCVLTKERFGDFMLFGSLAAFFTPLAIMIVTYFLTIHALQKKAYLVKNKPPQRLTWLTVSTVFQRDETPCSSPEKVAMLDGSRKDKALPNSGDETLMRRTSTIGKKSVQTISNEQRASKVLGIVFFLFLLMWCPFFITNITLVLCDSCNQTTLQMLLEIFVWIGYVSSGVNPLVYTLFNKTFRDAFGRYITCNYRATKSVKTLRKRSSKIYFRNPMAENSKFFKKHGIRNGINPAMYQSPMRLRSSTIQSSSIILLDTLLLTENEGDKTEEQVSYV

Cc1cn([C@H]2C[C@H](N=[N+]=[N-])[C@@H](CO)O2)c(=O)[nH]c1=O [ZIDOVUDINE]
Not Active: IC50 [1] | IC50 (D(4) dopamine receptor) | IC50 [2] | Ki [2] | IC50 [3] | IC50 (Cytochrome P450 2A6) | Ki (Cytochrome P450 2A6) | IC50 [4] | Ki [4] | IC50 [5]

STANNOUS FLUORIDE
Not Active: IC50 [1] | Ki [1] | IC50 (D(4) dopamine receptor) | Ki (D(4) dopamine receptor) | IC50 [2] | Ki [2] | IC50 [3] | Ki [3] | IC50 (Cytochrome P450 2A6) | Ki (Cytochrome P450 2A6) | IC50 [4] | Ki [4] | IC50 [5] | Ki [5]

THIMEROSAL
Not Active: IC50 [1] | Ki [1] | IC50 (D(4) dopamine receptor) | Ki (D(4) dopamine receptor) | IC50 [2] | Ki [2] | IC50 [3] | Ki [3] | IC50 (Cytochrome P450 2A6) | Ki (Cytochrome P450 2A6) | IC50 [4] | Ki [4] | IC50 [5] | Ki [5]

Reference: ChEMBL document CHEMBL1909046, “DrugMatrix in vitro pharmacology data”
